Holding throughout (assay type): functional, cell-based
Conditions in all cases: Oryctolagus cuniculus

Assay [1] in a line: (§1) Antiplatelet activity against rabbit platelet assessed as inhibition of platelet-activating factor-induced platelet aggregation preincubated for 3 mins by turbidimetric method.
The subject of assay [2] is Platelet. Briefly: Antiplatelet activity against rabbit platelet assessed as inhibition of collagen-induced platelet aggregation at 300 uM preincubated for 3 mins by turbidimetric method.
In assay [3] the test system is Platelet. Kind of assay: Antiplatelet activity against rabbit platelet assessed as inhibition of platelet-activating factor-induced platelet aggregation at 300 uM preincubated for 3 mins by turbidimetric method.
Assay [4] has as its system Platelet. Briefly: Antiplatelet activity against rabbit platelet assessed as inhibition of arachidonic acid-induced platelet aggregation at 300 uM preincubated for 3 mins by turbidimetric method.
Assay [5] can be described thus: Antiplatelet activity against rabbit platelet assessed as inhibition of collagen-induced platelet aggregation preincubated for 3 mins by turbidimetric method.
A short description of assay [6]: Antiplatelet activity against rabbit platelet assessed as inhibition of arachidonic acid-induced platelet aggregation preincubated for 3 mins by turbidimetric method.
Assay [7] concerns Platelet. The description is as §1.

pIC50: −log10 of the molar value. The source made the active and inactive calls. No cut-off for these calls is given here.

The pIC50 is −log10 of the IC50, conventionally taken in molar units. Consider `CCCCCCCCCCCCCCCCCCNC(=O)OCC(COP(=O)([O-])OCC[n+]1ccsc1)OC` (configuration not stated), for which, in assay [1], the negative logarithm of the IC50 (pIC50) is 5.96.

For the compound `CC(C)=CCc1cc2c(cc1O)O[C@H](c1ccc(O)cc1)CC2=O`, the outcome in assay [2], in assay [3] and in assay [4] was inactive.

`CC(=O)Oc1ccccc1C(=O)O` [ASPIRIN]: the negative logarithm of the IC50 (pIC50) in assay [5] was 4.52.

Regarding `CC(C)=CCc1c(O)ccc(C(=O)/C=C/c2ccc(O)cc2)c1O` [ISOBAVACHALCONE], the pIC50 is 4.19 in assay [5], 6.30 in assay [6] and 4.38 in assay [1].

Turning to `CC(C)=CCc1cc(-c2coc3cc(O)ccc3c2=O)ccc1O` [NEOBAVAISOFLAVONE], the figures for the pIC50 in assay [5], in assay [6] and in assay [1] were 4.20, 5.11 and 5.60, respectively. Besides, the Activity entry in assay [7] was “Dose-dependent effect”.

Values taken from ChEMBL document CHEMBL1158225, “Antiplatelet flavonoids from seeds of Psoralea corylifolia” (J Nat Prod, 1996).
